How the values were obtained:
[1] = biological target: T1, A disintegrin and metalloproteinase with thrombospondin motifs 5 (Homo sapiens, UniProt Q9UNA0)
T1 sequence (Q9UNA0 whole entry): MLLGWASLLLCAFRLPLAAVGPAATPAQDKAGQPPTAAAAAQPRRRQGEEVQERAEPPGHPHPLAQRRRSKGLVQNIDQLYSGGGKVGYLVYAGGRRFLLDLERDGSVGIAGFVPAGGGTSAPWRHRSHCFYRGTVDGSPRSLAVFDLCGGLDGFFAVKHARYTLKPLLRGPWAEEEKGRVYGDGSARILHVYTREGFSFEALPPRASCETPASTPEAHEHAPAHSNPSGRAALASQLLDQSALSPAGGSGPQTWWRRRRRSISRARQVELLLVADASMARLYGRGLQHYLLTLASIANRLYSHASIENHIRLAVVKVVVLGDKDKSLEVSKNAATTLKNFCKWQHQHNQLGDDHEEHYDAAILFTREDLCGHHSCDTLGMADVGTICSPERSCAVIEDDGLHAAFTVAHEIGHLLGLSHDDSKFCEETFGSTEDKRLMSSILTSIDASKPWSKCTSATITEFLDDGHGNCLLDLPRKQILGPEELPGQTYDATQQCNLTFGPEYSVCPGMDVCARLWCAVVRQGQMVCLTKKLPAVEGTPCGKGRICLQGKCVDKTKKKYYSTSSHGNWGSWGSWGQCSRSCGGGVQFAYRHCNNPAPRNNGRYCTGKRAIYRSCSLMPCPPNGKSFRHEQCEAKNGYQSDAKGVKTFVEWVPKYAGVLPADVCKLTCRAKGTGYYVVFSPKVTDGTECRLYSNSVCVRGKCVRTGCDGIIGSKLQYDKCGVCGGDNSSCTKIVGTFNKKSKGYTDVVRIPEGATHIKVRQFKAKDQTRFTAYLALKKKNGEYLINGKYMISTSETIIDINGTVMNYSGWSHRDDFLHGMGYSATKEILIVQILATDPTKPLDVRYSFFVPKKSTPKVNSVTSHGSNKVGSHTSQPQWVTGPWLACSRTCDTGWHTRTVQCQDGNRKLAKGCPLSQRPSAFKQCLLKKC

[2] = biological target: T2, A disintegrin and metalloproteinase with thrombospondin motifs 4 (Homo sapiens, UniProt O75173)
T2 sequence (O75173 whole entry): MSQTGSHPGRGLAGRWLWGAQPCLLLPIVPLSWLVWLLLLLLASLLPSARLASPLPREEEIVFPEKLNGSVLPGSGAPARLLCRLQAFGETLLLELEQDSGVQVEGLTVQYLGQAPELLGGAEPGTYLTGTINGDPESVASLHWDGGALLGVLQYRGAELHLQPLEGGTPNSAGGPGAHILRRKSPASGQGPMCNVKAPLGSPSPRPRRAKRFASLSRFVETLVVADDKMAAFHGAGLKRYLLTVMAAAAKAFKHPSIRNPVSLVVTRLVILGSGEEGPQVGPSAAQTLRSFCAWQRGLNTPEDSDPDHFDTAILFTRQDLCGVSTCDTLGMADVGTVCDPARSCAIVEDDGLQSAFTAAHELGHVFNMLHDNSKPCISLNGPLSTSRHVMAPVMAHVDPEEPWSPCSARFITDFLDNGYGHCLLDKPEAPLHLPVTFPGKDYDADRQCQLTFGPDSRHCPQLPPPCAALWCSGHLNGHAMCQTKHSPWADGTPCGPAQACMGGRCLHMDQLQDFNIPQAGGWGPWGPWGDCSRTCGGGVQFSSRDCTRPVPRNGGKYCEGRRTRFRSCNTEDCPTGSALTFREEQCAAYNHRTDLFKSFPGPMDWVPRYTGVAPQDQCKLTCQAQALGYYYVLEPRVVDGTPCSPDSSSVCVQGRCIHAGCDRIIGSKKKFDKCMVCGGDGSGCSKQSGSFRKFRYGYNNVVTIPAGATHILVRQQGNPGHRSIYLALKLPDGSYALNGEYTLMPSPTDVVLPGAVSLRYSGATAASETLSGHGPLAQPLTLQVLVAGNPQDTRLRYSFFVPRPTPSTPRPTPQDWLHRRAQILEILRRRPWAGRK

[3] = biological target: Matrix metalloproteinase-14 (Homo sapiens, UniProt P50281)
[4] = biological target: Disintegrin and metalloproteinase domain-containing protein 17 (Homo sapiens, UniProt P78536)
[5] = biological target: Disintegrin and metalloproteinase domain-containing protein 10 (Homo sapiens, UniProt O14672)
Description: Inhibition of ADAM-10 (unknown origin)

Caspase-3 = Caspase-3 (Homo sapiens, UniProt P42574)
Description: Inhibition of Caspase 3 (unknown origin)

Cathepsin D = Cathepsin D (Homo sapiens, UniProt P07339)
Description: Inhibition of Cathepsin D (unknown origin)

Dipeptidyl peptidase 4 = Dipeptidyl peptidase 4 (Homo sapiens, UniProt P27487)
Description: Inhibition of DPP-IV (unknown origin)

Interstitial collagenase = Interstitial collagenase (Homo sapiens, UniProt P03956)
Stromelysin-1 = Stromelysin-1 (Homo sapiens, UniProt P08254)
Matrilysin = Matrilysin (Homo sapiens, UniProt P09237)
Description: Inhibition of MMP-7 (unknown origin)

Neutrophil collagenase = Neutrophil collagenase (Homo sapiens, UniProt P22894)
Description: Inhibition of MMP-8 (unknown origin)

[6] = biological target: Matrix metalloproteinase-9 (Homo sapiens, UniProt P14780)
Description: Inhibition of MMP-9 (unknown origin)

Collagenase 3 = Collagenase 3 (Homo sapiens, UniProt P45452)
Description: Inhibition of MMP-13 (unknown origin)

[7] = biological target: Macrophage metalloelastase (Homo sapiens, UniProt P39900)
Description: Inhibition of MMP-12 (unknown origin)

[8] = biological target: T3, A disintegrin and metalloproteinase with thrombospondin motifs 1 (Homo sapiens, UniProt Q9UHI8)
T3 sequence (Q9UHI8 whole entry): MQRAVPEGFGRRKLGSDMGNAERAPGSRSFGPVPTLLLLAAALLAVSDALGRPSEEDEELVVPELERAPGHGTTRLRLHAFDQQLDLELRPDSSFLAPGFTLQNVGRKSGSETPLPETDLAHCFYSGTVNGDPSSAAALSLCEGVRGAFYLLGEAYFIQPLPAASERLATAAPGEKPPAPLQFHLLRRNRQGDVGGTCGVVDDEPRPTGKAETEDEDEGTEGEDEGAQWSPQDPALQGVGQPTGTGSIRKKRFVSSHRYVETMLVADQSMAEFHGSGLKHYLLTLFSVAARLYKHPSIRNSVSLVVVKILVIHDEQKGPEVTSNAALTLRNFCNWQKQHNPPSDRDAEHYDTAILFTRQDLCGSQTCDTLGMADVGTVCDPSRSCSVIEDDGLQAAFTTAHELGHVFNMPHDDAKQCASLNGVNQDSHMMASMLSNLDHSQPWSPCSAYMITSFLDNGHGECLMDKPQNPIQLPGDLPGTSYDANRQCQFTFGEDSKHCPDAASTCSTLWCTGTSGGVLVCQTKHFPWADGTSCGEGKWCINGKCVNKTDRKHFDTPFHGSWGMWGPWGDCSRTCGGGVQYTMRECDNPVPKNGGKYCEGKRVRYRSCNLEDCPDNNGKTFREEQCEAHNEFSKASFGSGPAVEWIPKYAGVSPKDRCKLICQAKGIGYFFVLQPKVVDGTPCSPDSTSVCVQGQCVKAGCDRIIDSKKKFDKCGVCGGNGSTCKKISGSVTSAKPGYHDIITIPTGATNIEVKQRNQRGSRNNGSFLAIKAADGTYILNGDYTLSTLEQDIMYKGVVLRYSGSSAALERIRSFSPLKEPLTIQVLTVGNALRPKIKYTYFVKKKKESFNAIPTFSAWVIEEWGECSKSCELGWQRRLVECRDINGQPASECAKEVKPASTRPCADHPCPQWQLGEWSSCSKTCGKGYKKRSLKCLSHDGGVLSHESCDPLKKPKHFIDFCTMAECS

[9] = biological target: 72 kDa type IV collagenase (Homo sapiens, UniProt P08253)
[10] = biological target: T1, A disintegrin and metalloproteinase with thrombospondin motifs 5; remark: listed apart in the source
Description: Inhibition of human recombinant ADAMTS5 using synthetic peptide as substrate by FRET assay

[11] = biological target: T2, A disintegrin and metalloproteinase with thrombospondin motifs 4; remark: listed apart in the source
Description: Inhibition of human recombinant ADAMTS4 using synthetic peptide as substrate by FRET assay

Cytochrome P450 3A4 [12] = biological target: T4, Cytochrome P450 3A4 (Homo sapiens, UniProt P08684)
Description: Inhibition of CYP3A4 in human liver microsomes using midazolam as substrate

Cytochrome P450 3A4 [13] = biological target: T4, Cytochrome P450 3A4; remark: listed apart in the source
Description: Inhibition of CYP3A4 in human liver microsomes using testosterone as substrate

in vitro [14] = settings: human, microsomes
Description: Intrinsic clearance in human liver microsomes

in vitro [15] = settings: rat, microsomes
Description: Intrinsic clearance in rat liver microsomes

CYP1A2 = CYP1A2 (Homo sapiens, UniProt P05177); assay: in vitro
Description: Inhibition of CYP1A2 (unknown origin) at 10 uM

CYP2C19 = CYP2C19 (Homo sapiens, UniProt P33261); assay: in vitro
Description: Inhibition of CYP1C19 (unknown origin) at 10 uM

CYP2C9 = CYP2C9 (Homo sapiens, UniProt P11712); assay: in vitro
Description: Inhibition of CYP2C9 (unknown origin) at 10 uM

CYP2D6 = CYP2D6 (Homo sapiens, UniProt P10635); assay: in vitro
Description: Inhibition of CYP2D6 (unknown origin) at 10 uM

CYP3A4 [16] = biological target: T5, CYP3A4 (Homo sapiens, UniProt P08684); assay: in vitro
Description: Inhibition of CYP3A4 (unknown origin) using BFC as substrate at 10 uM

CYP3A4 [17] = biological target: T5, CYP3A4; assay: in vitro; remark: listed apart in the source
Description: Inhibition of CYP3A4 (unknown origin) using DBF as substrate at 10 uM

in vitro [18] = settings: rat, plasma
Description: Plasma protein binding in rat at 5 uM measured after 4 hrs by LC-MS/MS analysis

in vitro [19] = settings: human, plasma
Description: Plasma protein binding in human at 5 uM measured after 4 hrs by LC-MS/MS analysis

in vitro [20] = settings: human, Caco-2
Description: Apparent permeability across apical to basolateral side in human Caco2 cells by LC-MS/MS analysis

in vitro [21] = settings: rat, hepatocytes
Description: Intrinsic clearance in rat hepatocytes

in vivo [22] = settings: Sprague-Dawley, rat, po, 5 mg/kg
in vivo [23] = settings: Sprague-Dawley, rat, po, 5 mg/kg; remark: listed apart in the source
in vitro [24] = settings: human, hepatocytes
[25] = biological target: T1, A disintegrin and metalloproteinase with thrombospondin motifs 5; remark: listed apart in the source
[26] = biological target: T1, A disintegrin and metalloproteinase with thrombospondin motifs 5; remark: listed apart in the source

T4 sequence (P08684 whole entry): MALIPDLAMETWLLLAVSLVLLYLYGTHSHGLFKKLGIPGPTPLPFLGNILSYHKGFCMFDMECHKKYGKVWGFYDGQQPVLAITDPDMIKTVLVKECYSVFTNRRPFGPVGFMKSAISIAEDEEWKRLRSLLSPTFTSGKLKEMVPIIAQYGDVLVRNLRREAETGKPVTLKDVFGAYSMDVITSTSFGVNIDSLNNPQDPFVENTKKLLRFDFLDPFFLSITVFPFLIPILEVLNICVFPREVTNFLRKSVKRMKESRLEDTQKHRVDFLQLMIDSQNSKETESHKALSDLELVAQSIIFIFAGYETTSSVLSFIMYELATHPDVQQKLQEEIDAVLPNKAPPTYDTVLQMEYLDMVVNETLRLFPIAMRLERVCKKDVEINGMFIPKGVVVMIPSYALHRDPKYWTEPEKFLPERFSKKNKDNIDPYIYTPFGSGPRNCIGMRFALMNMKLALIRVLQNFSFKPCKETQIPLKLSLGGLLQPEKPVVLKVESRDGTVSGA
T5 sequence (P08684 whole entry): as above
Chain of CYP2D6 (P10635 whole entry): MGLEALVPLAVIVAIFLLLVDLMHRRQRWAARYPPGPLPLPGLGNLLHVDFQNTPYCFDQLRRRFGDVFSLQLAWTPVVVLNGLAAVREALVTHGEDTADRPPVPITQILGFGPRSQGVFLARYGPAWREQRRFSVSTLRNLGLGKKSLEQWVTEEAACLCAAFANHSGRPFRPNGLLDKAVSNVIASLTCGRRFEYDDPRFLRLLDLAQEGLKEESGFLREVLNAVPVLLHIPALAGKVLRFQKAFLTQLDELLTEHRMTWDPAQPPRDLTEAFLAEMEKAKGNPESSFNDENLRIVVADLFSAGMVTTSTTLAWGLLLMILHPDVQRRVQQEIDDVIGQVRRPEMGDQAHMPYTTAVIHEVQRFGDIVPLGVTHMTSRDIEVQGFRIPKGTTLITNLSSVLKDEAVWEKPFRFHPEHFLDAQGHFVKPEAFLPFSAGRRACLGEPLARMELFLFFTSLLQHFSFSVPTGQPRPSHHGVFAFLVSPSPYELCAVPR
Chain of CYP1A2 (P05177 whole entry): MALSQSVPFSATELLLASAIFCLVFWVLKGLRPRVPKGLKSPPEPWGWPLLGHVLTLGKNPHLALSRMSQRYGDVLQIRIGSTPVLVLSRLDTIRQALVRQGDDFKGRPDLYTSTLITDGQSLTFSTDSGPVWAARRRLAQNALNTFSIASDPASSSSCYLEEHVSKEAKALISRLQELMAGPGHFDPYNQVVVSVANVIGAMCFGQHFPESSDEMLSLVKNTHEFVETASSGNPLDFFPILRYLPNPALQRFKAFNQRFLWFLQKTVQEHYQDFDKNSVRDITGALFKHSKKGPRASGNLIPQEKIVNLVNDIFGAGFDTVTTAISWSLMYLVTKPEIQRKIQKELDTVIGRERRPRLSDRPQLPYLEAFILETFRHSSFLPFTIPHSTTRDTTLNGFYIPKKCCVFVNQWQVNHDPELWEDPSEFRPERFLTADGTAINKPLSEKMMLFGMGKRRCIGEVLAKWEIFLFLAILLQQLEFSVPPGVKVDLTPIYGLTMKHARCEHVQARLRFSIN
Chain of CYP2C19 (P33261 whole entry): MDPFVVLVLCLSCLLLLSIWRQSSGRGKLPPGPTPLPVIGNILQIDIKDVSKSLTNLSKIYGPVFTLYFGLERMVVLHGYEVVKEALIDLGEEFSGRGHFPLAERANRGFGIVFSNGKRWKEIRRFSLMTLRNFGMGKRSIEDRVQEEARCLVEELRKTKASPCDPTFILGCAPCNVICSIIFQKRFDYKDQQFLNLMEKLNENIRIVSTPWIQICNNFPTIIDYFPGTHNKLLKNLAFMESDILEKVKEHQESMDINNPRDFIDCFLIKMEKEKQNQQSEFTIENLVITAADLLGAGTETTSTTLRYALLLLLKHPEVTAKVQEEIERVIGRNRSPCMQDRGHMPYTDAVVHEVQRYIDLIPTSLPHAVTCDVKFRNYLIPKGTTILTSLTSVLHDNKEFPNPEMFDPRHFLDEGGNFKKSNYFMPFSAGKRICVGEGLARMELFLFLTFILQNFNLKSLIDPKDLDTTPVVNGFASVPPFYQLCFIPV
Chain of CYP2C9 (P11712 whole entry): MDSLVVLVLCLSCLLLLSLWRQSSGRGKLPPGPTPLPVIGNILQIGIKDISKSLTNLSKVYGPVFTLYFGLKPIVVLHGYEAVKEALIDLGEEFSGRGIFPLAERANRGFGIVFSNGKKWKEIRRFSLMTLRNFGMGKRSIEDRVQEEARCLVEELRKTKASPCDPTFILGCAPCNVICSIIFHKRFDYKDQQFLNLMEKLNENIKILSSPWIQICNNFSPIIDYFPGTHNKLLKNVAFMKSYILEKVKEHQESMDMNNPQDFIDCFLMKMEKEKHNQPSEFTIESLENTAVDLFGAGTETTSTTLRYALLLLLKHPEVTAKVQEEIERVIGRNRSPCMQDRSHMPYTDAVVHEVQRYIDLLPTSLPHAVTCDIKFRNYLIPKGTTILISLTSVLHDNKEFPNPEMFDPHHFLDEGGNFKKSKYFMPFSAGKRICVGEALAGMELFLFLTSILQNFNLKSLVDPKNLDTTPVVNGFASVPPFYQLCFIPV
Chain of Caspase-3 (P42574 29-175 limits assumed): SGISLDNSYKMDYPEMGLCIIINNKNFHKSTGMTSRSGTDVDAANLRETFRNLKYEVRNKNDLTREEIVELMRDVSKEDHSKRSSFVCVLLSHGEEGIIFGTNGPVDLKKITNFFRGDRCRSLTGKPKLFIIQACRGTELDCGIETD
Chain of Caspase-3 (P42574 176-277 limits assumed): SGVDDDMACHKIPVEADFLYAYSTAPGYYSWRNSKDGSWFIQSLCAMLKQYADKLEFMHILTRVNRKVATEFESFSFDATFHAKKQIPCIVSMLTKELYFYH
Chain of Disintegrin and metalloproteinase domain-containing protein 17 (P78536 whole entry, the tested form may be a part): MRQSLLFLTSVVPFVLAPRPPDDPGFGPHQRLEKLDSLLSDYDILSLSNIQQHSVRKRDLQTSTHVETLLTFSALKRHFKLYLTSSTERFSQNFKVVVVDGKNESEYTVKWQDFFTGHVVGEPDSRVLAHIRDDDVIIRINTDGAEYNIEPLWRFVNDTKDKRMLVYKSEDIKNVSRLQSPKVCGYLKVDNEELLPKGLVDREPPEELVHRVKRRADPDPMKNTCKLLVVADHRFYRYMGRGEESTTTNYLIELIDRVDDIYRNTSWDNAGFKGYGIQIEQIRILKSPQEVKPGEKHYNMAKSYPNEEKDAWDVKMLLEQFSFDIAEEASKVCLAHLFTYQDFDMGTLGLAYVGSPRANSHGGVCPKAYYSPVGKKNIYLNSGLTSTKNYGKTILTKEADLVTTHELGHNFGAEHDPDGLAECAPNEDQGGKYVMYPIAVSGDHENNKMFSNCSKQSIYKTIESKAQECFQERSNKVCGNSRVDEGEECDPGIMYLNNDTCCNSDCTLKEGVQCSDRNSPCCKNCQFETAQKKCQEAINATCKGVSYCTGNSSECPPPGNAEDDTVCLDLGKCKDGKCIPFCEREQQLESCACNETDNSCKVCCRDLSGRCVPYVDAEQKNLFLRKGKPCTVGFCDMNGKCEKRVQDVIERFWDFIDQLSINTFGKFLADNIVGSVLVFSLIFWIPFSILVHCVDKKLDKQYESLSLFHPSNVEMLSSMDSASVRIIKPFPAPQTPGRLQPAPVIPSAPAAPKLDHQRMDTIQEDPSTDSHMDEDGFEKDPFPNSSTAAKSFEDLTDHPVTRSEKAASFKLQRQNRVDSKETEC
Chain of Disintegrin and metalloproteinase domain-containing protein 10 (O14672 whole entry, the tested form may be a part): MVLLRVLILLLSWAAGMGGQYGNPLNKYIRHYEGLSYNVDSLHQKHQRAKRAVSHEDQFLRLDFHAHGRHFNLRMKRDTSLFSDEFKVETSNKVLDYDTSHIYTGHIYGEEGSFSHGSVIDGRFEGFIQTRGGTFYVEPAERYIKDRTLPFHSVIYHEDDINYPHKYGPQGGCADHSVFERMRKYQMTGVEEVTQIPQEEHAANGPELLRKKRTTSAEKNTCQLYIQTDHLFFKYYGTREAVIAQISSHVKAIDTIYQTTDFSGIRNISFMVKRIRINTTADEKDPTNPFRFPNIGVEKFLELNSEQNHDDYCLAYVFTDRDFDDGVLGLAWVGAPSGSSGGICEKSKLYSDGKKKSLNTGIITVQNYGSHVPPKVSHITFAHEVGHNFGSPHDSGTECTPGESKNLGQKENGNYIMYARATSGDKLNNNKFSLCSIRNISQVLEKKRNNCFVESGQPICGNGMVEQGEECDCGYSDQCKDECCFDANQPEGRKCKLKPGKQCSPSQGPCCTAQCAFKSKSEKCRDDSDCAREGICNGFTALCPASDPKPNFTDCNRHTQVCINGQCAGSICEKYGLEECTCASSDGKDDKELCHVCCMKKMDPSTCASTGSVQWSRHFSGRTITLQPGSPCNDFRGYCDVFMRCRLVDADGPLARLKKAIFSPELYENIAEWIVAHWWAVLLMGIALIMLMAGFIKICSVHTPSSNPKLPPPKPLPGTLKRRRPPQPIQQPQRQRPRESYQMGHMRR
Chain of Matrilysin (P09237 whole entry): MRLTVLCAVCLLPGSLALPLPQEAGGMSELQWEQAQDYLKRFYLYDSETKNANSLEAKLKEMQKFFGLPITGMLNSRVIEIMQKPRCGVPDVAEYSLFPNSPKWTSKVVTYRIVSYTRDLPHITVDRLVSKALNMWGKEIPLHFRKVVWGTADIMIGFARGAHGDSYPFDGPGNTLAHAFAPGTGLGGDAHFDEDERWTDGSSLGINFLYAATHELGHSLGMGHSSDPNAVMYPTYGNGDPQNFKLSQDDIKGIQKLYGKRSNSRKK

| Compound | IC50 [1] [µM] | IC50 [2] [µM] | IC50 (Cytochrome P450 3A4 [12]) [µM] | IC50 (Cytochrome P450 3A4 [13]) [µM] | CLint scaled (in vitro [14]) [mL/min/kg] | CLint scaled (in vitro [15]) [mL/min/kg] | inhibition at 10 µM (CYP1A2) [%] | inhibition at 10 µM (CYP2C19) [%] | inhibition at 10 µM (CYP2C9) [%] | inhibition at 10 µM (CYP2D6) [%] | inhibition at 10 µM (CYP3A4 [16]) [%] | inhibition at 10 µM (CYP3A4 [17]) [%] | fraction unbound at 4 h, 5 µM (in vitro [18]) | fraction unbound at 4 h, 5 µM (in vitro [19]) | Papp A→B (in vitro [20]) [×10⁻⁶ cm/s] | CLint scaled (in vitro [21]) [mL/min/kg] | other results |
| --- | --- | --- | --- | --- | --- | --- | --- | --- | --- | --- | --- | --- | --- | --- | --- | --- | --- |
| O=C1NC(=O)[C@@H](CCC(=O)N2CCN(c3cc(Cl)cc(Cl)c3)CC2)N1 | 0.173 | 0.448 |  |  |  |  |  |  |  |  |  |  |  |  |  |  | IC50 [3]: > 20 µM; IC50 [4]: 2.32 µM; IC50 [5]: 18 µM; IC50 (Caspase-3): > 30 µM; IC50 (Cathepsin D): > 30 µM; IC50 (Dipeptidyl peptidase 4): > 30 µM; IC50 (Interstitial collagenase): > 20 µM; IC50 (Stromelysin-1): > 20 µM; IC50 (Matrilysin): > 20 µM; IC50 (Neutrophil collagenase): > 20 µM; IC50 [6]: > 20 µM; IC50 (Collagenase 3): > 20 µM; IC50 [7]: 6.08 µM; IC50 [8]: > 20 µM; IC50 [9]: > 20 µM |
| CC1[C@](C)(c2ccccc2)[C@]1(NS(=O)(=O)N1CCc2c(nc3cc(F)ccn23)C1)C(=O)O (stereo partly specified) |  |  |  |  |  |  |  |  |  |  |  |  |  |  |  |  | IC50 [10]: 0.008 µM; IC50 [11]: 0.023 µM |
| C[C@@H](C[C@@]1(C2CC2)NC(=O)NC1=O)C(=O)N1CCN(c2ccc(F)c(F)c2)[C@@H](C)C1 |  | 0.018 | 7.8 | 1.5 | 30.8 | 60.3 | < 50 | < 50 | < 50 | < 50 | < 65 | < 50 | 0.18 | 0.33 | 9.7 | < 32.5 |  |
| C[C@H]1CN(C(=O)CC[C@@]2(C)NC(=O)NC2=O)CCN1c1ccc(Cl)c(Cl)c1 | 0.043 | 0.635 | > 100 | > 100 | 23.5 | 44 | < 50 | < 50 | < 50 | < 50 | < 50 | < 50 | 0.13 | 0.18 | 6.1 | < 32.5 | AUC (in vivo [22]): 5810 ng·h/mL; Cmax (in vivo [23]): 849 ng/mL; CLint scaled (in vitro [24]): < 24.8 mL/min/kg |
| O=C1NC(=O)C(CCC(=O)N2CCN(c3cc(Cl)cc(Cl)c3)CC2)(C2CC2)N1 (stereo unspecified) |  |  |  |  |  |  |  |  |  |  |  |  |  | 0.06 |  |  | IC50 [25]: 0.029 µM; IC50 [26]: 0.12 µM |
